Reference: patent publication US20250289810A1, “Compounds As NLRP3 Inflammasome Inhibitors And Their Use As Medicaments” (MAM-AGE S.R.L., priority 2022, published 2025)

system: THP-1 cells; assay: RealTime-Glo MT Cell Viability assay on THP-1 cells; format: cell-based, human; conditions: 1 μM, 48 hours
Procedure: (§1) Cell viability was evaluated on THP-1 cells using realtime-Glo” MT Cell Viability Assay (Promega Italia, MI). Briefly, the cells were seeded in a 96 multiwell (10×10^4 cells/well), treated with the selected compound of Formula (II), and incubated for 48 hours. After treatment, the cells were incubated for 10 minutes in the incubator with the realtime-Glo” reagent following protocol. The luminescence was measured every 12 hours in the Glomax Multi Detection System Promega. The luminescence signal correlates with the number of metabolically active cells.
as §1, with “compound,” for “compound of Formula (II),”, “cells. The results represent the mean luminescence values (RLU)±SEM.” for “cells.”

Row | Compound | Cytotoxicity / cell viability of THP-1 cells
1 | Nc1ccc(S(=O)(=O)N[C@@H](Cc2ccc(O)cc2)C(=O)Nc2c3c(cc4c2CCC4)CCC3)cc1 [Compound 10 of Formula (III), (S)-2-((4-aminophenyl)sulfonamido)-N-(1,2,3,5,6,7-hexahydro-s-indacen-4-yl)-3-(4-hydroxyphenyl)propanamide] | no cytotoxicity
2 | CC(C)[C@H](NS(=O)(=O)c1ccc([N+](=O)[O-])cc1)C(=O)Nc1c2c(cc3c1CCC3)CCC2 [Compound 6c of Formula (III), (S)—N-(1,2,3,5,6,7-hexahydro-s-indacen-4-yl)-3-methyl-2-((4-nitrophenyl)sulfonamido)butanamide] | no cytotoxicity

target: T1, NLRP3 inflammasome (Mus musculus, UniProt Q8R4B8); assay: Inhibition of NLRP3-mediated IL-1β release in BMDMs (LPS + Bz-ATP), ELISA; format: cell-based; conditions: BMDM; BMDMs from WT mice, LPS + BzATP, compound at 1 μM; read-out: Inhibitory rate of IL-1β release
T1 construct: bone marrow-derived macrophages (BMDMs) from wild type (WT) mice first primed with 1 μg/ml lipopolysaccharide (LPS); endogenous in cells; host or cells: primary BMDMs from wild type mice
T1 sequence (Q8R4B8 whole entry): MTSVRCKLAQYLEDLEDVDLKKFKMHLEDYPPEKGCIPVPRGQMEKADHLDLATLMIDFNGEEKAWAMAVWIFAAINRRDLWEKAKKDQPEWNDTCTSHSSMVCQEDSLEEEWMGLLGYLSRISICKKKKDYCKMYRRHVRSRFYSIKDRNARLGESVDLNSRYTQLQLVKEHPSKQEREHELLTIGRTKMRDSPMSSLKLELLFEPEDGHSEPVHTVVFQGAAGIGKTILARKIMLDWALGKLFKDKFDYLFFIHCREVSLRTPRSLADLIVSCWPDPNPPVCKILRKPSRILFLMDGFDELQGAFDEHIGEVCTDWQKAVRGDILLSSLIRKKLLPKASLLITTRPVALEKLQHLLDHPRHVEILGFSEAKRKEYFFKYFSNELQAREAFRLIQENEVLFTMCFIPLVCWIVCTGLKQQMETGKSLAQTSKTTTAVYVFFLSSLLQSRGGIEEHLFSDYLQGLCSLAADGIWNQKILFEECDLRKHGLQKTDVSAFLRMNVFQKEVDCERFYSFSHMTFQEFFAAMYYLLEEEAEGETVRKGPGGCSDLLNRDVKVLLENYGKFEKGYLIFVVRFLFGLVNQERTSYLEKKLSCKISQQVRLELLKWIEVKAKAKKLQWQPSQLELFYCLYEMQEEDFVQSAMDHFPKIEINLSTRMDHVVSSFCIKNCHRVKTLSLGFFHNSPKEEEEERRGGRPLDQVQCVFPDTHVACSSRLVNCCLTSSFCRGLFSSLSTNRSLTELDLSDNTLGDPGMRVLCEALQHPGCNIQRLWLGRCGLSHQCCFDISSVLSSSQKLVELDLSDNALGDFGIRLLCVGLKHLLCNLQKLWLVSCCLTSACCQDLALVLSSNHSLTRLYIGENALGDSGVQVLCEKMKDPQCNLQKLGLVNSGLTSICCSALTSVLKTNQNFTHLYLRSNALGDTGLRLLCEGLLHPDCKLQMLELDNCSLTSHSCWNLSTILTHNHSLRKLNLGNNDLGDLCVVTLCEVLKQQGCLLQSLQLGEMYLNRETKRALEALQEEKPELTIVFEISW

Row | Compound | inhibition at 1 µM
3 | Nc1ccc(S(=O)(=O)N[C@@H](Cc2ccccc2)C(=O)Nc2c3c(cc4c2CCC4)CCC3)cc1 [Compound 7g of Formula (III), (S)-2-((4-aminophenyl)sulfonamido)-N-(1,2,3,5,6,7-hexahydro-s-indacen-4-yl)-3-phenylpropanamide] | 38%
4 | CC(C)[C@@H](NS(=O)(=O)c1ccc(N)cc1)C(=O)Nc1c2c(cc3c1CCC3)CCC2 [Compound 7d of Formula (III), (R)-2-((4-aminophenyl)sulfonamido)-N-(1,2,3,5,6,7-hexahydro-s-indacen-4-yl)-3-methylbutanamide] | 8.4%
5 | Nc1ccc(S(=O)(=O)N[C@H](C(=O)Nc2c3c(cc4c2CCC4)CCC3)c2ccccc2)cc1 [Compound 7f of Formula (III), (S)-2-((4-aminophenyl)sulfonamido)-N-(1,2,3,5,6,7-hexahydro-s-indacen-4-yl)-2-phenylacetamide] | 16.1%
6 | Nc1ccc(S(=O)(=O)N2CCCCC2C(=O)Nc2c3c(cc4c2CCC4)CCC3)cc1 (stereo not drawn) [Compound 4b of Formula (IV), 1-((4-aminophenyl)sulfonyl)-N-(1,2,3,5,6,7-hexahydro-s-indacen-4-yl)piperidine-2-carboxamide] | 25.4%
7 | CC(C)[C@H](NS(=O)(=O)c1ccc(N)cc1)C(=O)Nc1c2c(cc3c1CCC3)CCC2 [Compound 7c of Formula (III), (S)-2-((4-aminophenyl)sulfonamido)-N-(1,2,3,5,6,7-hexahydro-s-indacen-4-yl)-3-methylbutanamide] | 50.2%
8 | O=C(Nc1c2c(cc3c1CCC3)CCC2)[C@@H](NS(=O)(=O)c1ccc([N+](=O)[O-])cc1)c1ccccc1 [Compound 6f of Formula (III), (S)—N-(1,2,3,5,6,7-hexahydro-s-indacen-4-yl)-2-((4-nitrophenyl)sulfonamido)-2-phenylacetamide] | 44.8%
9 | O=C(Nc1c2c(cc3c1CCC3)CCC2)C1CCCCN1S(=O)(=O)c1ccc([N+](=O)[O-])cc1 (stereo not drawn) [Compound 3b of Formula (IV), N-(1,2,3,5,6,7-hexahydro-s-indacen-4-yl)-1-((4-nitrophenyl)sulfonyl)piperidine-2-carboxamide] | 52.4%
10 | CC(C)C[C@H](NS(=O)(=O)c1ccc(N)cc1)C(=O)Nc1c2c(cc3c1CCC3)CCC2 [Compound 7e of Formula (III), (S)-2-((4-aminophenyl)sulfonamido)-N-(1,2,3,5,6,7-hexahydro-s-indacen-4-yl)-4-methylpentanamide] | 31.5%
11 | O=C(Nc1c2c(cc3c1CCC3)CCC2)C1CCCN1S(=O)(=O)c1ccc([N+](=O)[O-])cc1 (stereo not drawn) [Compound 3a of Formula (IV), N-(1,2,3,5,6,7-hexahydro-s-indacen-4-yl)-1-((4-nitrophenyl)sulfonyl)pyrrolidine-2-carboxamide] | 25.7%
12 | Nc1ccc(S(=O)(=O)NCCC(=O)Nc2c3c(cc4c2CCC4)CCC3)cc1 [Compound 7k of Formula (III), 3-((4-aminophenyl)sulfonamido)-N-(1,2,3,5,6,7-hexahydro-s-indacen-4-yl)propanamide] | 22.3%
13 | C[C@H](NS(=O)(=O)c1ccc(N)cc1)C(=O)Nc1c2c(cc3c1CCC3)CCC2 [Compound 7b of Formula (III), (S)-2-((4-aminophenyl)sulfonamido)-N-(1,2,3,5,6,7-hexahydro-s-indacen-4-yl)propanamide] | 17.3%
14 | Nc1ccc(S(=O)(=O)N2CCCC2C(=O)Nc2c3c(cc4c2CCC4)CCC3)cc1 (stereo not drawn) [Compound 4a of Formula (IV), 1-((4-aminophenyl)sulfonyl)-N-(1,2,3,5,6,7-hexahydro-s-indacen-4-yl)pyrrolidine-2-carboxamide] | 41.6%
15 | Nc1ccc(S(=O)(=O)N[C@H](Cc2ccccc2)C(=O)Nc2c3c(cc4c2CCC4)CCC3)cc1 [Compound 7h of Formula (III), (R)-2-((4-aminophenyl)sulfonamido)-N-(1,2,3,5,6,7-hexahydro-s-indacen-4-yl)-3-phenylpropanamide] | 46.4%

More lines, now with the values ahead:

Row | inhibition at 1 µM | Compound
16 | 28.4% | NCCCC[C@H](NS(=O)(=O)c1ccc(N)cc1)C(=O)Nc1c2c(cc3c1CCC3)CCC2 [Compound 11 of Formula (III), (S)-6-amino-2-((4-aminophenyl)sulfonamido)-N-(1,2,3,5,6,7-hexahydro-s-indacen-4-yl)hexanamide]
17 | 34.7% | O=C(Nc1c2c(cc3c1CCC3)CCC2)[C@H](Cc1ccc(O)cc1)NS(=O)(=O)c1ccc([N+](=O)[O-])cc1 [Compound 8 of Formula (III), (S)—N-(1,2,3,5,6,7-hexahydro-s-indacen-4-yl)-3-(4-hydroxyphenyl)-2-((4-nitrophenyl)sulfonamido)propanamide]
18 | 36.5% | O=C(CCNS(=O)(=O)c1ccc([N+](=O)[O-])cc1)Nc1c2c(cc3c1CCC3)CCC2 [Compound 6k of Formula (III), N-(1,2,3,5,6,7-hexahydro-s-indacen-4-yl)-3-((4-nitrophenyl)sulfonamido)propanamide]
19 | 47.5% | NCCCC[C@H](NS(=O)(=O)c1ccc([N+](=O)[O-])cc1)C(=O)Nc1c2c(cc3c1CCC3)CCC2 [Compound 9 of Formula (III), (S)-6-amino-N-(1,2,3,5,6,7-hexahydro-s-indacen-4-yl)-2-((4-nitrophenyl)sulfonamido)hexanamide]
20 | 49.5% | O=C(Nc1c2c(cc3c1CCC3)CCC2)[C@@H](Cc1ccccc1)NS(=O)(=O)c1ccc([N+](=O)[O-])cc1 [Compound 6h of Formula (III), (R)—N-(1,2,3,5,6,7-hexahydro-s-indacen-4-yl)-2-((4-nitrophenyl)sulfonamido)-3-phenylpropanamide]
21 | 53.9% | CC(C)C[C@H](NS(=O)(=O)c1ccc([N+](=O)[O-])cc1)C(=O)Nc1c2c(cc3c1CCC3)CCC2 [Compound 6e of Formula (III), (S)—N-(1,2,3,5,6,7-hexahydro-s-indacen-4-yl)-4-methyl-2-((4-nitrophenyl)sulfonamido)pentanamide]
22 | 19.8% | O=C(Nc1c2c(cc3c1CCC3)CCC2)[C@H](Cc1ccccc1)NS(=O)(=O)c1ccc([N+](=O)[O-])cc1 [Compound 6g of Formula (III), (S)—N-(1,2,3,5,6,7-hexahydro-s-indacen-4-yl)-2-((4-nitrophenyl)sulfonamido)-3-phenylpropanamide]

target: T2, NLRC4 inflammasome (Mus musculus, UniProt Q3UP24); assay: NLRC4 inflammasome activation in LPS-primed BMDM transfected with flagellin of S. typhimurium (IL-1β ELISA); format: cell-based; conditions: LPS 100 ng/ml 3 hours, compound 1 μm 30 minutes, flagellin 100 ng/ml 2 hours
T2 construct: endogenous in cells; host or cells: mouse BMDM, LPS-primed, transfected with S. typhimurium flagellin
Procedure: The selectivity of compound 4 as an inhibitor of NLRP3 was then evaluated with respect to NLRC4 and absent in melanoma 2 (AIM2) inflammasomes. For activation of NLRC4 inflammasome, BMDM were treated with LPS (100 ng/ml) for 3 hours. Subsequently, the culture medium was removed and replaced with a serum-free medium containing compound 4 (1 μm for 30 minutes), finally the cells were transfected with flagellin (100 ng/ml) by S. typhimurium for 2 hours. The supernatant was tested by ELISA. […] The effect of the same compounds was examined on the non-NLR AIM2 inflammasome by transfecting BMDM with the dsDNS analogue Poly (dA:dT).
The selectivity of compounds 6c and 10 of Formula (III) as inhibitors of NLRP3 was then evaluated with respect to NLRC4 inflammasome. For activation of NLRC4 inflammasome, BMDM were treated with LPS (100 ng/ml) for 3 hours. Subsequently the culture medium was removed and replaced with a serum-free medium containing […] (1 μm for 30 minutes), finally the cells were transfected with flagellin (100 ng/ml) by S. typhimurium for 2 hours. The supernatant was tested by ELISA.

T2 sequence (Q3UP24 whole entry): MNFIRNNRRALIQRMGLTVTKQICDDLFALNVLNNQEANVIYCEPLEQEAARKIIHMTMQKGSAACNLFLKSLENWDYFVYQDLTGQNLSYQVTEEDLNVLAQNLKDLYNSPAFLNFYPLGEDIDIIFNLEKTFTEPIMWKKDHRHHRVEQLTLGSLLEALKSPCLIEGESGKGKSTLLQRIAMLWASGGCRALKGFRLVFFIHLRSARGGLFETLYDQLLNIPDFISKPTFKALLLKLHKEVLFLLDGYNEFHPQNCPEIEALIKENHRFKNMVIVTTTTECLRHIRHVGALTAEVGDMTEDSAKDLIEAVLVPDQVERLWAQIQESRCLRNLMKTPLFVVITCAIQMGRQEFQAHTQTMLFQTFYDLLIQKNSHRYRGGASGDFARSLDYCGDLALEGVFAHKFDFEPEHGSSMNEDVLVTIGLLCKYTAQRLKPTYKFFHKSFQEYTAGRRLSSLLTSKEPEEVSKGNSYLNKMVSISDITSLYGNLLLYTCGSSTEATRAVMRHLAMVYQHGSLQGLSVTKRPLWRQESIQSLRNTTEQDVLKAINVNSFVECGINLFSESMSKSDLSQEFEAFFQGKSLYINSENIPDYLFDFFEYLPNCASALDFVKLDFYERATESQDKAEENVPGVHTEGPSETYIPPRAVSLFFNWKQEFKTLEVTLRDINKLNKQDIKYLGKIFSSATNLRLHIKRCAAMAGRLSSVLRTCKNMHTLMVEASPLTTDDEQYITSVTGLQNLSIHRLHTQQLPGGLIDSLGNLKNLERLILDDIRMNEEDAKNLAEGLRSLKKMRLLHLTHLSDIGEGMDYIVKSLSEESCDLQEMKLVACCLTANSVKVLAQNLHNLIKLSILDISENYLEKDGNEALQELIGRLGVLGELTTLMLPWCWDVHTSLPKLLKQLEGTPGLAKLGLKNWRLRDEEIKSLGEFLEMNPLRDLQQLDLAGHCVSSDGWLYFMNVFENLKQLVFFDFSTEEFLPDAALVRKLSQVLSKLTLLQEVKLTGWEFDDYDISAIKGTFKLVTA

Row | Effect on activation of NLRC4 inflammasome triggered by flagellin S. typhimurium | Compound
23 | no effect | Nc1ccc(S(=O)(=O)N[C@@H](Cc2ccc(O)cc2)C(=O)Nc2c3c(cc4c2CCC4)CCC3)cc1 [Compound 10 of Formula (III), (S)-2-((4-aminophenyl)sulfonamido)-N-(1,2,3,5,6,7-hexahydro-s-indacen-4-yl)-3-(4-hydroxyphenyl)propanamide]
24 | no effect | CC(C)[C@H](NS(=O)(=O)c1ccc([N+](=O)[O-])cc1)C(=O)Nc1c2c(cc3c1CCC3)CCC2 [Compound 6c of Formula (III), (S)—N-(1,2,3,5,6,7-hexahydro-s-indacen-4-yl)-3-methyl-2-((4-nitrophenyl)sulfonamido)butanamide]
